Structures can show the parent of a compound that is named as a salt. Where two headings read alike, the source gives them in different places.
Legend:
Aβ1-40 = Aβ1-40 content in conditioned medium of primary cortico-hippocampal neuron cultures from Tg2576 mice (ELISA; primary and secondary dose-response screening); assay type: cell-based, mouse; conditions: for Ab1-40 (% of ctl) / activity at 100 µM: drug 100 μM; for activity at 100 µM: Mus musculus, Neuron, 24 h, read-out: Ab1-40 (% of ctl); for reduced Aβ1-40: <85% of ctl
Protocol: (§1) Potential Aβ-lowering activity was assessed for 150 commercially available cardiovascular drugs using primary cortico-hippocampal neuron cultures derived from embryonic Tg2576 (El 6). […] All cardiovascular reagents were obtained from MicroSource Discovery Systems Inc (Gaylordsville, Conn.). […] Individual cardiovascular agents were applied directly to the culture medium (final 1% DMSO in the culture media). In control studies, parallel Tg2576 primary neuron cultures were treated with vehicle (1% DMSO) alone. The influence of drug treatments in Aβ content in the conditioned medium in treated cultures was assessed by assessing steady state levels of Aβ1-40 and Aβ1-42 in the culture media 24 hours after treatment.
(§2) Embryonic brain tissue was mechanically triturated and centrifuged. Neurons were seeded onto poly-D-lysine-coated 96-well plates at 1.0×10^5 cells per well and cultured in the serum-free chemically-defined medium Neurobasal, supplemented with 2% B27, 0.5 mM L-glutamine and 1% penicillin-streptomycin (Gibco-BRL).
(§3) For primary screening, cultured neurons were treated with 100 μM of drug in duplicates for 16 hours; all drugs were obtained in stock from MicroSource Discovery Systems Inc (Gaylordsville, Conn.). Conditioned medium was collected for Aβ detection using commercially available ELISA kits (BioSource). […] Primary neurons prepared in 96-well plates were treated with 0.1 μM, 1 μM, 10 μM, 50 μM, and 100 μM of each drug in duplicate for ˜16 hours and conditioned medium was collected for Aβ detection.

Aβ1-42 = Aβ1-42 content in conditioned medium of primary cortico-hippocampal neuron cultures from Tg2576 mice (ELISA; primary and secondary dose-response screening); assay type: cell-based, mouse; conditions: for Ab1-42 (% of ctl) / activity at 100 µM: drug 100 μM; for activity at 100 µM: Mus musculus, Neuron, 24 h, read-out: Ab1-42 (% of ctl); for reducing Aβ1-42: <85% of ctl
Protocol: as §1, §2, §3

[1] = system: primary cortico-hippocampal neuron cultures; assay: MTT in primary screening
[2] = system: primary cortico-hippocampal neuron cultures; assay: lactate dehydrogenase (LDH) activity assay in parallel neuron cultures
Protocol: For in vitro treatments drugs available from “The Spectrum Collection” in stocks of 10 mM in DMSO were applied directly to cultures to the desired concentrations (final 1% DMSO); control primary neuron cultures from Tg2576 embryos were treated with vehicle resulting in a final 1% DMSO.
Cell viability was assessed using a commercial available LDH assay kit according to the manufacture's instruction (Promega).

[3] = Primary Screening, table sorted by Aβ1-40
[4] = primary screening, Tg2576 neuron cultures, table sorted by Aβ1-42
[5] = primary screening, table sorted by Aβ1-42

Row | Compound | Ab1-40 (% of ctl) (Aβ1-40; [3]) | Ab1-40 (% of ctl) (Aβ1-40; [4]) | Ab1-42 (% of ctl) (Aβ1-42; [3]) | Ab1-42 (% of ctl) (Aβ1-42; [4]) | MTT (% of ctl) [1, 3] | MTT (% of ctl) [1, 5] | LDH (% of ctl) [2, 3] | LDH (% of ctl) [2, 5] | activity at 100 µM (Aβ1-40; [3]) | activity at 100 µM (Aβ1-40; [4]) | activity at 100 µM (Aβ1-42; [3]) | activity at 100 µM (Aβ1-42; [4]) | reducing Aβ1-42 (Aβ1-42; primary screening) | reduced Aβ1-40 (Aβ1-40; primary screening) | LDH at E-5M % of change ([2]; drug at E-5M)
1 | COc1ccc2c(c1OC)C(=O)O[C@H]2[C@@H]1c2cc3c(cc2CCN1C)OCO3 [1S,9R-Beta-HYDRASTINE] | 114.5 % of ctl | 114.5 % of ctl | 123.6 % of ctl | 123.6 % of ctl | 101.1 % of ctl | 101.1 % of ctl | 114.2 % of ctl | 114.2 % of ctl | – | – | – | – | – | – | –
2 | CC(C)(C)NCC(O)COc1cccc2[nH]c(=O)[nH]c12 (stereo not drawn) [2-HYDROXY-4-(2-HYDROXY-3-T-BUTYLAMINOPROPOXY)-BENZIMIDAZOLE] | – | – | – | – | 97.1 % of ctl | 97.1 % of ctl | 109.3 % of ctl | 109.3 % of ctl | 99.2% | 99.2% | 104% | 104% | – | – | –
3 | CCCC(=O)Nc1ccc(OCC(O)CNC(C)C)c(C(C)=O)c1 (stereo not drawn) [Acebutolol Hydrochloride] | – | – | – | – | 99.4 % of ctl | 99.4 % of ctl | 107.6 % of ctl | 107.6 % of ctl | 134% | 134% | 165% | 165% | – | – | –
4 | CC(=O)Nc1nnc(S(N)(=O)=O)s1 [Acetazolamide] | – | – | – | – | 78.0 % of ctl | 78.0 % of ctl | 173.5 % of ctl | 173.5 % of ctl | 115% | 115% | 118% | 118% | – | – | –
5 | COc1cc2nc(N(C)CCCNC(=O)C3CCCO3)nc(N)c2cc1OC (stereo not drawn) [Alfluzosin] | 122.7 % of ctl | 122.7 % of ctl | 66.9 % of ctl | 66.9 % of ctl | 91.8 % of ctl | 91.8 % of ctl | 95.4 % of ctl | 95.4 % of ctl | – | – | – | – | useful in reducing Aβ1-42 | – | –
6 | C=CCc1ccccc1OCC(O)CNC(C)C (stereo not drawn) [Alprenolol] | – | – | – | – | 92.2 % of ctl | 92.2 % of ctl | 128.0 % of ctl | 128.0 % of ctl | 93.8% | 93.8% | 106% | 106% | – | – | –
7 | C=CCSCC1Nc2cc(Cl)c(S(N)(=O)=O)cc2S(=O)(=O)N1 (stereo not drawn) [Althiazide] | – | – | – | – | 99.7 % of ctl | 99.7 % of ctl | 109.0 % of ctl | 109.0 % of ctl | 74.4% | 74.4% | 65.4% | 65.4% | useful in reducing Aβ1-42 | reduced Aβ1-40 | –
8 | CCCCc1oc2ccccc2c1C(=O)c1cc(I)c(OCCN(CC)CC)c(I)c1 [Amiodarone Hydrochloride] | – | – | – | – | – | – | – | – | 14.9% | 14.9% | 23.2% | 23.2% | useful in reducing Aβ1-42 | reduced Aβ1-40 | 1.9%
9 | CCOC(=O)C1=C(COCCN)NC(C)=C(C(=O)OC)C1c1ccccc1Cl (stereo not drawn) [Amlodipine Besylate] | – | – | – | – | 13.3 % of ctl | 13.3 % of ctl | 1188.9 % of ctl | 1188.9 % of ctl | 4.9% | 4.9% | 10.2% | 10.2% | useful in reducing Aβ1-42 | reduced Aβ1-40 | –
10 | COc1ccc(C2C(=O)c3ccccc3C2=O)cc1 [Anisindione] | – | – | – | – | 110.7 % of ctl | 110.7 % of ctl | 148.9 % of ctl | 148.9 % of ctl | 90.1% | 90.1% | 103% | 103% | – | – | –
11 | CC(C)NCC(O)COc1ccc(CC(N)=O)cc1 (stereo not drawn) [Atenolol] | – | – | – | – | 97.3 % of ctl | 97.3 % of ctl | 136.8 % of ctl | 136.8 % of ctl | 90.4% | 90.4% | 94.5% | 94.5% | – | – | –
12 | CC(C)c1c(C(=O)Nc2ccccc2)c(-c2ccccc2)c(-c2ccc(F)cc2)n1CC[C@@H](O)C[C@@H](O)CC(=O)[O-].CC(C)c1c(C(=O)Nc2ccccc2)c(-c2ccccc2)c(-c2ccc(F)cc2)n1CC[C@@H](O)C[C@@H](O)CC(=O)[O-].[Ca+2] [Atorvastatin Calcium] | 66.0 % of ctl | 66.0 % of ctl | 76.9 % of ctl | 76.9 % of ctl | 98.4 % of ctl | 98.4 % of ctl | 99.4 % of ctl | 99.4 % of ctl | – | – | – | – | useful in reducing Aβ1-42 | reduced Aβ1-40 | –
13 | CC(C)(Oc1ccc(CCNC(=O)c2ccc(Cl)cc2)cc1)C(=O)O [BENZAFIBRATE] | 107.2 % of ctl | 107.2 % of ctl | 99.5 % of ctl | 99.5 % of ctl | – | – | – | – | – | – | – | – | – | – | –
14 | CCOC(=O)[C@H](CCc1ccccc1)N[C@H]1CCc2ccccc2N(CC(=O)O)C1=O [Benazepril Hydrochloride] | – | – | – | – | 99.5 % of ctl | 99.5 % of ctl | 103.5 % of ctl | 103.5 % of ctl | 116% | 116% | 115% | 115% | – | – | –
15 | CC[C@@H](C)C(=O)O[C@H]1[C@H](O)[C@H]2[C@@H](CN3C[C@@H](C)CC[C@H]3[C@@]2(C)O)[C@@H]2C[C@]34O[C@]5(O)[C@@H](OC(=O)[C@@](C)(O)CC)CC[C@@]3(C)[C@@H]5[C@@H](OC(C)=O)[C@@H](OC(C)=O)[C@H]4[C@@]21O [Protoveratrine A] | 91.7 % of ctl | 91.7 % of ctl | 104.6 % of ctl | 104.6 % of ctl | – | – | – | – | – | – | – | – | – | – | –
16 | CC(C)(C)NCC(O)c1ccccc1Cl (stereo not drawn) [Tulobuterol] | – | – | – | – | – | – | – | – | 95.5% | 95.5% | – | – | – | – | –
17 | NC(N)=O [Urea] | – | – | 104.9 % of ctl | 104.9 % of ctl | 96.7 % of ctl | 96.7 % of ctl | 130.8 % of ctl | 130.8 % of ctl | – | – | – | – | – | – | –
